Measurements: patent US20080220066A1 (HENDERSON MORLEY PLC, priority 2005, published 2008)
In brackets after ≈: the same amount, converted by molar mass. Like-named read-outs stand apart in the source and are kept apart here.

Tests used:
[1] = tested on: Herpes simplex virus (HSV); assay: HSV standard plaque inhibition assay; assay type: cell-based; conditions: for ICVT activity: HSV plaque inhibition assay; for IC50: Herpes simplex virus
From the text: Using Herpes simplex virus (HSV), 50% plaque inhibitory dose (1D50) were established using the standard plaque inhibition assay.

[2] = tested on: Herpes simplex virus (HSV); assay: HSV virus yield (infectious virus particle production); assay type: cell-based; conditions: for HSV yield: solvent as listed per compound, Torasemide at 90 μg/ml
Adenovirus = assay: 50% plaque inhibitory concentration, Adenovirus; conditions: unidentified adenovirus, A549, read-out: Furosemide IC50
[3] = for Flux: Q24 divided by 24

SMILES: CC(=O)Nc1nnc(S(N)(=O)=O)s1 [Acetazolamide]
- ICVT activity [1]: only ‘borderline’ CVI activity

SMILES: CCCCNc1cc(C(=O)O)cc(S(N)(=O)=O)c1Oc1ccccc1 [Bumetanide]
- HSV yield [2]: HSV yield reduced Borderline

SMILES: C[C@H]1O[C@@H](O[C@H]2[C@@H](O)C[C@H](O[C@H]3[C@@H](O)C[C@H](O[C@H]4CC[C@@]5(C)[C@H](CC[C@@H]6[C@@H]5CC[C@]5(C)[C@@H](C7=CC(=O)OC7)CC[C@]65O)C4)O[C@@H]3C)O[C@@H]2C)C[C@H](O)[C@@H]1O [Digitoxin]
- HSV yield [2]: HSV yield reduced
- ID50 ([1]; Digoxin, Digitoxin from powder 250 μg per ml in 70% ethanol, IV Lanoxin in 10% ethanol, virus not named at this place): 30 ng per ml
- ICVT activity [1]: potent ICVT activity
- comparative ‘ICVT-ivities’ ([1]; saturated solutions in 90% ethanol compared with Lanoxin, virus not named at this place): more effective than Digoxin

SMILES: NS(=O)(=O)c1cc(C(=O)O)c(NCc2ccco2)cc1Cl [Furosemide, 5-(Aminosulfonyl)-4-chloro-2-[(2-furanylmethyl)amino]benzoic acid]
- IC50 (Adenovirus): 440 ± 114 µg/mL (≈ 1330 µM)
- maximum concentrations observed in the receptor phase ([3]; 40:40:20 gels): 543.60 µg/mL
- Release date ([3]; Ampule Formulation): 667 μg cm^−2 h^0.5
- Q24 ([3]; Ampule Formulation (8% HPC)): 2724 μg cm^−2
- Flux ([3]; Ampule Formulation): 111 μg cm^−2 h^−1
- % applied dose ([3]; Gel 1:1, pH 7): 17.9%
- Release Rate ([3]; Gel 1:1, pH 7): 7.18 μg cm^−2 h^0.5
- Flux ([3]; Gel 1:1, pH 7): 2.69 μg cm^−2 h^−1
- Q24 ([3]; Gel 1:1, prototype 40:40:20 mix, pH 7, 24 h): 64.63 μg cm^−2
- Q24 ([3]; Gel 14:1 (F:D), prototype 40:40:20 mix, […] 981NF, pH 5, 24 h): 543.60 μg cm^−2
- Flux ([3]; Gel 14:1, pH 5): 22.65 μg cm^−2 h^−1
- % applied dose ([3]; Gel 14:1, pH 5, assuming 2 g of gel in donor): 8.7%
- Release Rate ([3]; Gel 14:1, pH 5, gradient of square root of time plot): 124.51 μg cm^−2 h^0.5
- % applied dose ([3]; Gel 14:1, pH 7): 5.9%
- Release Rate ([3]; Gel 14:1, pH 7): 77.482 μg cm^−2 h^0.5
- Flux ([3]; Gel 14:1, pH 7): 15.24 μg cm^−2 h^−1
- % applied dose ([3]; Gel 14:1, pH 9): 3.7%
- Release Rate ([3]; Gel 14:1, pH 9): 43.389 μg cm^−2 h^0.5
- Flux ([3]; Gel 14:1, pH 9): 9.61 μg cm^−2 h^−1
- Q24 ([3]; Gel 14:1, prototype 40:40:20 mix, pH 7, 24 h): 365.65 μg cm^−2
- Q24 ([3]; Gel 14:1, prototype 40:40:20 mix, pH 9, 24 h): 230.69 μg cm^−2
- Release date ([3]; HPC Formulation): 2673 μg cm^−2 h^0.5
- Q24 ([3]; HPC Formulation (revised 50:40:10 gel, 8% HPC, pH 5, 14:1)): 9085 μg cm^−2
- Flux ([3]; HPC Formulation): 388 μg cm^−2 h^−1
- Release date ([3]; Ultrez Formulation): 1027 μg cm^−2 h^0.5
- Q24 ([3]; Ultrez Formulation (revised 50:40:10 gel, […] Ultrez, pH 5, 14:1)): 6128 μg cm^−2
- Flux ([3]; Ultrez Formulation): 248 μg cm^−2 h^−1
- reduction of release rate, 1:1 Gel versus 1:14 Gel ([3]; pH 7): 10.8 fold
- IC50 ([1]; BHK-21, read-out: Furosemide IC50, host cell BHK21): 800 µg/mL (≈ 2420 µM)
- ICVT activity [1]: potent ICVT activity
- IC50 ([1]; read-out: Furosemide IC50, host cell Vero): 1000 µg/mL (≈ 3020 µM)
- Virus particles per cell (feline herpesvirus; each drug at its IC50, alone or both combined, No Drug 50): 0.25
- production of infectious virus reduced by (feline herpesvirus; each drug at its IC50, individually or in combination): 99.5%

SMILES: NS(=O)(=O)c1cc2c(cc1Cl)NCNS2(=O)=O [Hydrochiorothiazide, Hydrochlorothiazide]
- HSV yield reduced to zero at ([2]; Solvent: NaOH 1% aqueous): HSV yield reduced to zero at 600 ug/ml
- ICVT activity [1]: only ‘borderline’ CVI activity

SMILES: C[C@@H]1O[C@@H](O[C@H]2C[C@@H](O)[C@]3(CO)[C@H]4[C@H](O)C[C@]5(C)[C@@H](C6=CC(=O)OC6)CC[C@]5(O)[C@@H]4CC[C@]3(O)C2)[C@H](O)[C@H](O)[C@H]1O [Strophanthin G]
- HSV yield [2]: HSV yield reduced Borderline

SMILES: CCCCNC(=O)NS(=O)(=O)c1ccc(C)cc1 [Tolbutamide]
- HSV yield reduced to zero ([2]; Solvent: PEG): HSV yield reduced to zero 300 μg/ml
- HSV yield reduced to zero ([2]; Solvent: PG): HSV yield reduced to zero 300 μg/ml
- ICVT activity [1]: only ‘borderline’ CVI activity

SMILES: Cc1cccc(Nc2ccncc2S(=O)(=O)NC(=O)NC(C)C)c1 [Torasemide]
- HSV yield [2]: HSV yield unaffected at 90 μg/ml
